Some targets named below: Adenosine receptor A2a (Homo sapiens, UniProt P29274); Vasopressin V2 receptor (Homo sapiens, UniProt P30518); Melanocortin receptor 3 (Homo sapiens, UniProt P41968); D(3) dopamine receptor (Homo sapiens, UniProt P35462).
The target in experiment [1] is T1, Alpha-2C adrenergic receptor (Homo sapiens, UniProt P18825).
T1 sequence (P18825 whole entry): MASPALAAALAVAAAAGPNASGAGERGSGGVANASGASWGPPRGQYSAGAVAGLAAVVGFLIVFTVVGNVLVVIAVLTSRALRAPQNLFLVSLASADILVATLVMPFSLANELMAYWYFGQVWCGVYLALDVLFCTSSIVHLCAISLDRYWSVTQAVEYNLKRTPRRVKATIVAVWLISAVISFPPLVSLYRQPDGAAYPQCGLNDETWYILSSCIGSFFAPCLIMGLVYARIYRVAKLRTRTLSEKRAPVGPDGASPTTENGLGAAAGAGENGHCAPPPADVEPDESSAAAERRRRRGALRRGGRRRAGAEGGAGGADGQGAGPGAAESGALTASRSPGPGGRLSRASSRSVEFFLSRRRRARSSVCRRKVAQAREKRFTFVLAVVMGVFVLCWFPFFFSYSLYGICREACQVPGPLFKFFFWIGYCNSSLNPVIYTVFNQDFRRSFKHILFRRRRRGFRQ
The class given is functional.

Experiment [2] addresses 5-hydroxytryptamine receptor 2B (Homo sapiens, UniProt P41595). The experiment is classed as functional, cell-based.
For experiment [3], the target named is T2, 5-hydroxytryptamine receptor 2C (Homo sapiens, UniProt P28335).
T2 sequence (P28335 whole entry): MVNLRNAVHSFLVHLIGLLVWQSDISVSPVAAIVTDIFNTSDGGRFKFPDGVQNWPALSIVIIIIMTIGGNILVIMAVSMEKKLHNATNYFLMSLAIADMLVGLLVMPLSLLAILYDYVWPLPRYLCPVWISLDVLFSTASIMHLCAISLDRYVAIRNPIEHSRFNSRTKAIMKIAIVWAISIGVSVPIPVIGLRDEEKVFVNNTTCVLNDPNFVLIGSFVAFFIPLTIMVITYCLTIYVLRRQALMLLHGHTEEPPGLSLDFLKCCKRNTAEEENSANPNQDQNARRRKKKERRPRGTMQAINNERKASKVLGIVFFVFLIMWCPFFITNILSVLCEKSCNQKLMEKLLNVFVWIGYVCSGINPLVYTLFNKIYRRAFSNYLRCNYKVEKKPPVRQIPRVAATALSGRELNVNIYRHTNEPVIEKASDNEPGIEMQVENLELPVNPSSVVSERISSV

AC50 data for 24 compounds are collected here from ChEMBL document CHEMBL5291721, “A preclinical secondary pharmacology resource illuminates target-adverse drug reaction associations of marketed drugs” (Nat Commun, 2023).

The structures appear in SMILES notation.
Further: assay procedure not described here.

Sequence of D(3) dopamine receptor (P35462 whole entry): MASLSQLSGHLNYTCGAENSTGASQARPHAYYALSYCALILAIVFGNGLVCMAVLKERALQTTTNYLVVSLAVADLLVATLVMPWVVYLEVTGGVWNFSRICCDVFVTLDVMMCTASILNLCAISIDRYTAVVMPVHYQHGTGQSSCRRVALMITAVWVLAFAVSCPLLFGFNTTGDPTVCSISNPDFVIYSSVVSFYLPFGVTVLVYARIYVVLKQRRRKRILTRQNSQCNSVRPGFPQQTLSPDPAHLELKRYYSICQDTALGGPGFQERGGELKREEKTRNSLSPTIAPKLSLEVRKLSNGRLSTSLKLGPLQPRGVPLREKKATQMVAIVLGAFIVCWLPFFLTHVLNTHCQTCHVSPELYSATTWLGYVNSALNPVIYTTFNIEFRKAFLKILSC
Sequence of Vasopressin V2 receptor (P30518 whole entry): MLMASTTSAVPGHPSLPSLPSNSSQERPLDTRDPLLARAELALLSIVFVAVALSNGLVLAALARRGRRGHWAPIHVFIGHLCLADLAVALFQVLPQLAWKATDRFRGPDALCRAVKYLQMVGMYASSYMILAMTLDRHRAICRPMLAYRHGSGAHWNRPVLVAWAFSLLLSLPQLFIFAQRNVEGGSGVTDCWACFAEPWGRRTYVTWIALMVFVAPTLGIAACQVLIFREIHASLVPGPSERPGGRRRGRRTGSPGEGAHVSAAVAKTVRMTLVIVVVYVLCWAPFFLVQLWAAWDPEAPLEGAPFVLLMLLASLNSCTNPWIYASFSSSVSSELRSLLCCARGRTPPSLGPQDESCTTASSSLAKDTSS
Sequence of Adenosine receptor A2a (P29274 whole entry): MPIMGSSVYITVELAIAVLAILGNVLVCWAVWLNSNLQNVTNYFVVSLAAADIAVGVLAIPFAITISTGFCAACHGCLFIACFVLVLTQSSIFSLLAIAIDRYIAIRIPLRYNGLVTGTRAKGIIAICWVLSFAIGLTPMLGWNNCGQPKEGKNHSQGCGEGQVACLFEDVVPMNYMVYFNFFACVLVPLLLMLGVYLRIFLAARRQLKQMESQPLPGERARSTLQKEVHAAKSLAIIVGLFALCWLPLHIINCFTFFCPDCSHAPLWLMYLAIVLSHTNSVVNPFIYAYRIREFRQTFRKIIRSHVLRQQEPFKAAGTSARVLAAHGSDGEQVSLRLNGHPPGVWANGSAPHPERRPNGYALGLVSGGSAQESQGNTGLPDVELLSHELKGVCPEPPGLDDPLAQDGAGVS
Sequence of 5-hydroxytryptamine receptor 2B (P41595 whole entry): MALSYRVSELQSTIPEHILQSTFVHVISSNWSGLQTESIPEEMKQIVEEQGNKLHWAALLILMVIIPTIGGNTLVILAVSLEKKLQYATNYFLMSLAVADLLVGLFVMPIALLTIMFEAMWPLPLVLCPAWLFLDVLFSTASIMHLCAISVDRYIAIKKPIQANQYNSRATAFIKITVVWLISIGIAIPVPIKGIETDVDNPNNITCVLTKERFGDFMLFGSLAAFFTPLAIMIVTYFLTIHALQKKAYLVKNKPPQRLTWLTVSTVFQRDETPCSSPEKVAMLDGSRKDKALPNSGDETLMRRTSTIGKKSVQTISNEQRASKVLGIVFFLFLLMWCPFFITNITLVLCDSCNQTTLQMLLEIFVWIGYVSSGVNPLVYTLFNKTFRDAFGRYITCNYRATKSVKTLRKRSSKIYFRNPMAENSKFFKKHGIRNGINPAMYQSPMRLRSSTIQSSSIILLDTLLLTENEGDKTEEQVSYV
Sequence of Melanocortin receptor 3 (P41968 whole entry): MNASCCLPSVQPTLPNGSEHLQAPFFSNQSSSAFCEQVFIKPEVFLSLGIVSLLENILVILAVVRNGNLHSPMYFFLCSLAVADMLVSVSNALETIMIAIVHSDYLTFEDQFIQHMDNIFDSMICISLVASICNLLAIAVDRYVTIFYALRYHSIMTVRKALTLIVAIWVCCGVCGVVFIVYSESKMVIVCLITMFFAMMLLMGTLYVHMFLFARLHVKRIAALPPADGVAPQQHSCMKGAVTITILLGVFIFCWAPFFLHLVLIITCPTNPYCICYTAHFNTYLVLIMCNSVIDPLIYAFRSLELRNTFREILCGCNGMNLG

For the compound `C[C@]12CC[C@H](O)CC1=CC[C@@H]1[C@@H]2CC[C@]2(C)C(c3cccnc3)=CC[C@@H]12` [ABIRATERONE], the AC50 at Adenosine receptor A2a is above 30 µM; in experiment [1], above 10 µM; on Vasopressin V2 receptor, above 30 µM; in experiment [2], above 10 µM; in experiment [3], above 30 µM; on Melanocortin receptor 3, above 30 µM. Moreover, at D(3) dopamine receptor, the half-maximal activity concentration (AC50) was above 30 µM.
For `CC(=O)OCC[N+](C)(C)C` [ACETYLCHOLINE], the AC50 on Adenosine receptor A2a is above 30 µM; in experiment [1], above 10 µM; on Vasopressin V2 receptor, above 30 µM; in experiment [2] it was above 10 µM; in experiment [3], above 30 µM; on Melanocortin receptor 3, above 30 µM. Further, the AC50 on D(3) dopamine receptor is above 30 µM.
As to `CN(C)C(=O)Oc1cc(OC(=O)N(C)C)cc(C(O)CNC(C)(C)C)c1` (stereo not drawn) [BAMBUTEROL], the concentration at half-maximal activity (AC50) on Adenosine receptor A2a, on Vasopressin V2 receptor and on Melanocortin receptor 3 was above 30 µM in each case.
With `C[C@H]1C[C@H]2[C@@H]3CCC4=CC(=O)C=C[C@]4(C)[C@@]3(Cl)[C@@H](O)C[C@]2(C)[C@@]1(O)C(=O)CO` [BECLOMETHASONE], the AC50 on Adenosine receptor A2a is above 30 µM; in experiment [1], above 10 µM; at Vasopressin V2 receptor, above 30 µM; in experiment [3] it was above 30 µM; on Melanocortin receptor 3, above 30 µM; on D(3) dopamine receptor, above 10 µM.
For the compound `CO[C@@]1(NC(=O)CSCC#N)C(=O)N2C(C(=O)O)=C(CSc3nnnn3C)CS[C@@H]21` [CEFMETAZOLE], the concentration at half-maximal activity (AC50) (in experiment [1]; in experiment [2]; at D(3) dopamine receptor) was above 30 µM each time.
Turning to `NS(=O)(=O)c1cc(C2(O)NC(=O)c3ccccc32)ccc1Cl` (stereo not drawn) [CHLORTHALIDONE], the AC50 on Adenosine receptor A2a is above 10 µM; in experiment [1], above 10 µM; at Vasopressin V2 receptor, above 10 µM; in experiment [2], above 10 µM; in experiment [3] it was above 30 µM; on Melanocortin receptor 3 it was above 10 µM. The compound also yielded a concentration at half-maximal activity (AC50) at D(3) dopamine receptor above 30 µM.
As to `CC[C@H]1OC(=O)[C@H](C)[C@@H](O[C@H]2C[C@@](C)(OC)[C@@H](O)[C@H](C)O2)[C@H](C)[C@@H](O[C@@H]2O[C@H](C)C[C@H](N(C)C)[C@H]2O)[C@](C)(OC)C[C@@H](C)C(=O)[C@H](C)[C@@H](O)[C@]1(C)O` [CLARITHROMYCIN], the AC50 (at Adenosine receptor A2a; in experiment [1]; at Vasopressin V2 receptor; in experiment [2]; on Melanocortin receptor 3) was above 30 µM in each case.
As to `C[C@@H]1CCC[C@H](C)N1NC(=O)c1ccc(Cl)c(S(N)(=O)=O)c1` [CLOPAMIDE], the AC50 (on Adenosine receptor A2a; in experiment [1]; on Vasopressin V2 receptor; in experiment [2]; in experiment [3]; on Melanocortin receptor 3) was above 30 µM in each case. Besides, the AC50 on D(3) dopamine receptor was above 30 µM.
With `COc1ccc2c(c1)[C@]13CCCC[C@@H]1[C@H](C2)N(C)CC3` [DEXTROMETHORPHAN], the AC50 at Adenosine receptor A2a is above 30 µM; in experiment [1], 11 µM; on Vasopressin V2 receptor, above 30 µM; in experiment [2] it was above 10 µM; in experiment [3], above 30 µM; at Melanocortin receptor 3, above 30 µM. This compound also registered an AC50 at D(3) dopamine receptor above 30 µM.
`O=c1oc2ccccc2c(O)c1Cc1c(O)c2ccccc2oc1=O` [DICUMAROL]: the half-maximal activity concentration (AC50) on Adenosine receptor A2a was above 10 µM; in experiment [1], above 10 µM; at Vasopressin V2 receptor, above 10 µM; in experiment [2], above 10 µM; in experiment [3], above 30 µM; on Melanocortin receptor 3, above 10 µM. The AC50 on D(3) dopamine receptor was above 30 µM.
In the case of `CCn1cc(C(=O)O)c(=O)c2cc(F)c(N3CCNCC3)nc21` [ENOXACIN], the concentration at half-maximal activity (AC50) is above 30 µM on Adenosine receptor A2a; above 10 µM in experiment [1]; above 30 µM at Vasopressin V2 receptor; above 10 µM in experiment [2]; above 10 µM in experiment [3]; above 30 µM at Melanocortin receptor 3. The compound further came in with an AC50 at D(3) dopamine receptor above 10 µM.
Take `O=C(O)CSCC(=O)NC1CCSC1=O` (stereo not drawn) [ERDOSTEINE]: the AC50 (on Adenosine receptor A2a; in experiment [1]; on Vasopressin V2 receptor; in experiment [2]; in experiment [3]; at Melanocortin receptor 3) was above 30 µM each time. On D(3) dopamine receptor, this compound gave an AC50 above 30 µM.
Turning to `COc1cccc(N(C)C(=S)Oc2ccc3c(c2)CCCC3)n1` [LIRANAFTATE], the half-maximal activity concentration (AC50) (on Adenosine receptor A2a; in experiment [1]; on Vasopressin V2 receptor; in experiment [2]; in experiment [3]; on Melanocortin receptor 3) was above 30 µM in each case. At D(3) dopamine receptor, this compound gave an AC50 above 30 µM.
Turning to `C#C[C@]1(O)CC[C@H]2[C@@H]3CCc4cc(OC)ccc4[C@H]3CC[C@@]21C` [MESTRANOL], the half-maximal activity concentration (AC50) on Adenosine receptor A2a was above 30 µM; in experiment [1], above 30 µM; on Vasopressin V2 receptor it was above 10 µM; in experiment [2] it was above 10 µM; in experiment [3], above 30 µM; on Melanocortin receptor 3 it was above 10 µM. In addition, the concentration at half-maximal activity (AC50) at D(3) dopamine receptor was above 30 µM.
Consider `N=C(N)c1ccc2cc(OC(=O)c3ccc(N=C(N)N)cc3)ccc2c1` [NAFAMOSTAT], for which the AC50 at Adenosine receptor A2a is above 30 µM; in experiment [1] it was 3.2 µM; on Vasopressin V2 receptor, above 30 µM; in experiment [2], 29 µM; in experiment [3], above 30 µM; at Melanocortin receptor 3, above 30 µM. For the same compound, at D(3) dopamine receptor, the activity was half-maximal at 4.6 µM (AC50).
Consider `CNC(=O)Oc1ccc2c(c1)[C@]1(C)CCN(C)[C@@H]1N2C` [PHYSOSTIGMINE], for which the AC50 (on Adenosine receptor A2a; in experiment [1]; on Vasopressin V2 receptor; in experiment [2]; in experiment [3]; on Melanocortin receptor 3) was above 30 µM throughout. Besides, the half-maximal activity concentration (AC50) at D(3) dopamine receptor is above 30 µM.
Turning to `O=C(O)c1cc(O)c2c3nc4ccccc4oc-3cc(=O)c2n1` [PIRENOXINE], the concentration at half-maximal activity (AC50) was above 30 µM at Adenosine receptor A2a; 2.7 µM in experiment [1]; above 30 µM at Vasopressin V2 receptor; above 30 µM in experiment [2]; 2.3 µM in experiment [3]; above 30 µM on Melanocortin receptor 3. Also, the activity at D(3) dopamine receptor was half-maximal at 1.6 µM (AC50).
Take `NS(=O)(=O)c1cc(C(=O)O)cc(N2CCCC2)c1Oc1ccccc1` [PIRETANIDE]: the AC50 (at Adenosine receptor A2a; in experiment [1]; at Vasopressin V2 receptor; in experiment [2]; in experiment [3]; at Melanocortin receptor 3) was above 30 µM throughout. On D(3) dopamine receptor, this compound displayed an AC50 above 30 µM.
As to `CNCCCC1c2ccccc2C=Cc2ccccc21` [PROTRIPTYLINE], the AC50 at Adenosine receptor A2a was above 10 µM; on Vasopressin V2 receptor, above 10 µM; in experiment [2] it was 3.8 µM; at Melanocortin receptor 3 it was above 10 µM; on D(3) dopamine receptor, 0.85 µM.
For the compound `COCCCOc1ccnc(C[S+]([O-])c2nc3ccccc3[nH]2)c1C` (stereo not drawn) [RABEPRAZOLE], the half-maximal activity concentration (AC50) was above 30 µM on Adenosine receptor A2a; above 10 µM in experiment [1]; above 30 µM at Vasopressin V2 receptor; 12 µM in experiment [2]; above 30 µM in experiment [3]; above 30 µM on Melanocortin receptor 3. The compound also returned an AC50 on D(3) dopamine receptor above 10 µM.
Turning to `CC(C)=CCOc1ccc(/C=C/C(=O)c2ccc(OCC=C(C)C)cc2OCC(=O)O)cc1` [SOFALCONE], the AC50 (on Adenosine receptor A2a; in experiment [1]; on Vasopressin V2 receptor; in experiment [2]; in experiment [3]; on Melanocortin receptor 3) was above 30 µM in each case. For the same compound, the AC50 on D(3) dopamine receptor was above 30 µM.
As to `O=C(CCCN1CCC2(CC1)C(=O)NCN2c1ccccc1)c1ccc(F)cc1` [SPIPERONE], the AC50 is above 30 µM at Adenosine receptor A2a; 0.369 µM in experiment [1]; above 30 µM at Vasopressin V2 receptor; 10.3 µM in experiment [3]; above 30 µM at Melanocortin receptor 3.
Consider `CN(C)c1cc(NC(=O)CNC(C)(C)C)c(O)c2c1C[C@H]1C[C@H]3[C@H](N(C)C)C(O)=C(C(N)=O)C(=O)[C@@]3(O)C(O)=C1C2=O` [TIGECYCLINE], for which the AC50 (at Adenosine receptor A2a; in experiment [1]; at Vasopressin V2 receptor; in experiment [2]; in experiment [3]; at Melanocortin receptor 3) was above 30 µM in each case. The same compound came in with a concentration at half-maximal activity (AC50) at D(3) dopamine receptor above 30 µM.
On to `OCCN1CCN(CC/C=C2/c3ccccc3Sc3ccc(Cl)cc32)CC1` [ZUCLOPENTHIXOL], for which the AC50 is above 10 µM on Adenosine receptor A2a; 0.16 µM in experiment [1]; above 10 µM at Vasopressin V2 receptor; 0.92 µM in experiment [2]; 1 µM in experiment [3]; above 10 µM on Melanocortin receptor 3. Moreover, the AC50 at D(3) dopamine receptor is 0.046 µM.
